Measured values published in patent publication US10961200B2, “Small molecule inhibitors of lactate dehydrogenase and methods of use thereof” (THE UNITED STATES OF AMERICA, AS REPRESENTED BY THE …, priority 2014, dated 2021).

These compounds were tested against Human LDHA (Homo sapiens (Human), UniProt P00338) (assay: human LDHA primary biochemical assay (resazurin/diaphorase coupled, fluorescence)). Settings: LDHA inhibitory activity, activity level based on IC50 (Table 7).
Excerpt: Test compounds were placed in a Greiner Bio-One (Monroe, N.C.) 1536-well black solid bottom assay plate. 200 millimolar (mM) Tris HCl, pH 7.4, 100 micromolar […] EDTA and 0.01% TWEEN-20™, final concentration, was used as the assay buffer. The LDHA reagent was 2 nanomolar (nM) Human LDHA (Meridian Life Science, Inc., Memphis, Tenn.), final concentration, in assay buffer.

**Q.** How did the IC50 turn out when `NS(=O)(=O)c1ccc(Cc2cn(-c3nc(C(=O)O)cs3)nc2-c2cccc(OCC3CCCO3)c2)cc1` (stereo not drawn) [Compound 463, 2-(4-(4-sulfamoylbenzyl)-3-(3-((tetrahydrofuran-2-yl)methoxy)phenyl)-1H-pyrazol-1-yl)thiazole-4-carboxylic acid] was run?
**A.** Its IC50 is < 100 nM.

**Q.** For `NS(=O)(=O)c1ccc(Cc2cn(-c3nc(C(=O)O)cs3)nc2-c2cccc(Oc3ccccc3)c2)cc1` [Compound 464, 2-(3-(3-phenoxyphenyl)-4-(4-sulfamoylbenzyl)-1H-pyrazol-1-yl)thiazole-4-carboxylic acid], which IC50 is on record?
**A.** Its IC50 is < 100 nM.

**Q.** Which IC50 does the source give for `NS(=O)(=O)c1ccc(Cc2cnn(-c3nc(C(=O)O)cs3)c2-c2ccc3ccccc3c2)cc1` [Compound 474, 2-(5-(naphthalen-2-yl)-4-(4-sulfamoylbenzyl)-1H-pyrazol-1-yl)thiazole-4-carboxylic acid] here?
**A.** The IC50 was < 100 nM.

**Q.** `NS(=O)(=O)c1ccc(Cc2cnn(-c3nc(C(=O)O)cs3)c2-c2cccnc2)cc1` [Compound 475, 2-(5-(pyridin-3-yl)-4-(4-sulfamoylbenzyl)-1H-pyrazol-1-yl)thiazole-4-carboxylic acid] was tested. Which IC50 did it give?
**A.** Its IC50 is 100 to 1000 nM.

**Q.** How did the IC50 turn out when `Cc1ccc(-c2cc(-c3nn(-c4nc(C(=O)O)cs4)cc3Cc3ccc(S(N)(=O)=O)cc3)ccc2F)cc1` [Compound 476, 2-(3-(6-fluoro-4′-methyl-[1,1′-biphenyl]-3-yl)-4-(4-sulfamoylbenzyl)-1H-pyrazol-1-yl)thiazole-4-carboxylic acid] was run?
**A.** The IC50 was < 100 nM.

**Q.** With `NS(=O)(=O)c1ccc(Cc2c(-c3ccc(F)c(-c4ccc(F)cc4)c3)nn(-c3nc(C(=O)O)cs3)c2C2CC2)cc1` [Compound 482, 2-(5-cyclopropyl-3-(4′,6-difluoro-[1,1′-biphenyl]-3-yl)-4-(4-sulfamoylbenzyl)-1H-pyrazol-1-yl)thiazole-4-carboxylic acid] as the compound, how does the IC50 read?
**A.** The IC50 was < 100 nM.

**Q.** How did the IC50 turn out when `COc1cccc(-c2cc(-c3nn(-c4nc(C(=O)O)cs4)c(C4CC4)c3Cc3ccc(S(N)(=O)=O)cc3)ccc2F)c1` [Compound 483, 2-(5-cyclopropyl-3-(6-fluoro-3′-methoxy-[1,1′-biphenyl]-3-yl)-4-(4-sulfamoylbenzyl)-1H-pyrazol-1-yl)thiazole-4-carboxylic acid] was run?
**A.** The IC50 was < 100 nM.

**Q.** For `Cc1ccc(-c2cc(-c3nn(-c4nc(C(=O)O)cs4)c(C4CC4)c3Cc3ccc(S(N)(=O)=O)cc3)ccc2F)cc1` [Compound 484, 2-(5-cyclopropyl-3-(6-fluoro-4′-methyl-[1,1′-biphenyl]-3-yl)-4-(4-sulfamoylbenzyl)-1H-pyrazol-1-yl)thiazole-4-carboxylic acid], which IC50 is on record?
**A.** Its IC50 is < 100 nM.

**Q.** `Cc1ccc(-c2nn(-c3nc(C(=O)O)cs3)cc2Cc2ccc(S(N)(=O)=O)cc2)cc1-c1cccnc1` [Compound 486, 2-(3-(4-methyl-3-(pyridin-3-yl)phenyl)-4-(4-sulfamoylbenzyl)-1H-pyrazol-1-yl)thiazole-4-carboxylic acid] was tested. Which IC50 did it give?
**A.** The IC50 was < 100 nM.

**Q.** How did the IC50 turn out when `Cc1ccc(-c2nn(-c3nc(C(=O)O)cs3)cc2Cc2ccc(S(N)(=O)=O)cc2)cc1-c1cccc(N)c1` [Compound 487, 2-(3-(3′-amino-6-methyl-[1,1′-biphenyl]-3-yl)-4-(4-sulfamoylbenzyl)-1H-pyrazol-1-yl)thiazole-4-carboxylic acid] was run?
**A.** The IC50 was < 100 nM.

**Q.** `CCc1cccc(-c2cc(-c3nn(-c4nc(C(=O)O)cs4)cc3Cc3ccc(S(N)(=O)=O)cc3)ccc2C)c1` [Compound 488, 2-(3-(3′-ethyl-6-methyl-[1,1′-biphenyl]-3-yl)-4-(4-sulfamoylbenzyl)-1H-pyrazol-1-yl)thiazole-4-carboxylic acid] was tested. Which IC50 did it give?
**A.** Its IC50 is 100 to 1000 nM.

**Q.** How did the IC50 turn out when `Cc1ccc(-c2nn(-c3nc(C(=O)O)cs3)cc2Cc2ccc(S(N)(=O)=O)cc2)cc1-c1cc(F)cc(F)c1` [Compound 489, 2-(3-(3′,5′-difluoro-6-methyl-[1,1′-biphenyl]-3-yl)-4-(4-sulfamoylbenzyl)-1H-pyrazol-1-yl)thiazole-4-carboxylic acid] was run?
**A.** Its IC50 is 100 to 1000 nM.

**Q.** For `Cc1ccc(-c2nn(-c3nc(C(=O)O)cs3)cc2Cc2ccc(S(N)(=O)=O)cc2)cc1-c1ccncc1` [Compound 490, 2-(3-(4-methyl-3-(pyridin-4-yl)phenyl)-4-(4-sulfamoylbenzyl)-1H-pyrazol-1-yl)thiazole-4-carboxylic acid], which IC50 is on record?
**A.** Its IC50 is 100 to 1000 nM.

**Q.** `Cc1ccc(-c2nn(-c3nc(C(=O)O)cs3)cc2Cc2ccc(S(N)(=O)=O)cc2)cc1-c1ccccc1` [Compound 491, 2-(3-(6-methyl-[1,1′-biphenyl]-3-yl)-4-(4-sulfamoylbenzyl)-1H-pyrazol-1-yl)thiazole-4-carboxylic acid] was tested. Which IC50 did it give?
**A.** Its IC50 is 100 to 1000 nM.

**Q.** For `Cc1ccc(-c2nn(-c3nc(C(=O)O)cs3)cc2Cc2ccc(S(N)(=O)=O)cc2)cc1-c1ccc(F)c(F)c1` [Compound 492, 2-(3-(3′,4′-difluoro-6-methyl-[1,1′-biphenyl]-3-yl)-4-(4-sulfamoylbenzyl)-1H-pyrazol-1-yl)thiazole-4-carboxylic acid], which IC50 is on record?
**A.** Its IC50 is 100 to 1000 nM.

**Q.** How did the IC50 turn out when `Cc1cc(-c2cc(-c3nn(-c4nc(C(=O)O)cs4)cc3Cc3ccc(S(N)(=O)=O)cc3)ccc2C)ccc1F` [Compound 493, 2-(3-(4′-fluoro-3′,6-dimethyl-[1,1′-biphenyl]-3-yl)-4-(4-sulfamoylbenzyl)-1H-pyrazol-1-yl)thiazole-4-carboxylic acid] was run?
**A.** Its IC50 is 100 to 1000 nM.

**Q.** With `COc1ccc(-c2cc(-c3nn(-c4nc(C(=O)O)cs4)cc3Cc3ccc(S(N)(=O)=O)cc3)ccc2C)cc1F` [Compound 494, 2-(3-(3′-fluoro-4′-methoxy-6-methyl-[1,1′-biphenyl]-3-yl)-4-(4-sulfamoylbenzyl)-1H-pyrazol-1-yl)thiazole-4-carboxylic acid] as the compound, how does the IC50 read?
**A.** Its IC50 is 100 to 1000 nM.

**Q.** How did the IC50 turn out when `Cc1cc(C)cc(-c2cc(-c3nn(-c4nc(C(=O)O)cs4)cc3Cc3ccc(S(N)(=O)=O)cc3)ccc2C)c1` [Compound 495, 2-(4-(4-sulfamoylbenzyl)-3-(3′,5′,6-trimethyl-[1,1′-biphenyl]-3-yl)-1H-pyrazol-1-yl)thiazole-4-carboxylic acid] was run?
**A.** Its IC50 is 100 to 1000 nM.

**Q.** Which IC50 does the source give for `Cc1ccc(-c2cc(-c3nn(-c4nc(C(=O)O)cs4)cc3Cc3ccc(S(N)(=O)=O)cc3)ccc2C)cc1C#N` [Compound 496, 2-(3-(3′-cyano-4′,6-dimethyl-[1,1′-biphenyl]-3-yl)-4-(4-sulfamoylbenzyl)-1H-pyrazol-1-yl)thiazole-4-carboxylic acid] here?
**A.** The IC50 was 100 to 1000 nM.

**Q.** For `Cc1ccc(-c2nn(-c3nc(C(=O)O)cs3)cc2Cc2ccc(S(N)(=O)=O)cc2)cc1-c1cccc(F)c1` [Compound 497, 2-(3-(3′-fluoro-6-methyl-[1,1′-biphenyl]-3-yl)-4-(4-sulfamoylbenzyl)-1H-pyrazol-1-yl)thiazole-4-carboxylic acid], which IC50 is on record?
**A.** The IC50 was 100 to 1000 nM.

**Q.** `Cc1ccc(-c2nn(-c3nc(C(=O)O)cs3)cc2Cc2ccc(S(N)(=O)=O)cc2)cc1-c1ccc(F)cc1` [Compound 498, 2-(3-(4′-fluoro-6-methyl-[1,1′-biphenyl]-3-yl)-4-(4-sulfamoylbenzyl)-1H-pyrazol-1-yl)thiazole-4-carboxylic acid] was tested. Which IC50 did it give?
**A.** Its IC50 is 100 to 1000 nM.

**Q.** Which IC50 does the source give for `Cc1ccc(-c2nn(-c3nc(C(=O)O)cs3)c(C3CC3)c2Cc2ccc(S(N)(=O)=O)cc2)cc1-c1cccnc1` [Compound 499, 2-(5-cyclopropyl-3-(4-methyl-3-(pyridin-3-yl)phenyl)-4-(4-sulfamoylbenzyl)-1H-pyrazol-1-yl)thiazole-4-carboxylic acid] here?
**A.** The IC50 was < 100 nM.

**Q.** How did the IC50 turn out when `Cc1ccc(-c2nn(-c3nc(C(=O)O)cs3)c(C3CC3)c2Cc2ccc(S(N)(=O)=O)cc2)cc1-c1cccc(N)c1` [Compound 500, 2-(3-(3′-amino-6-methyl-[1,1′-biphenyl]-3-yl)-5-cyclopropyl-4-(4-sulfamoylbenzyl)-1H-pyrazol-1-yl)thiazole-4-carboxylic acid] was run?
**A.** Its IC50 is < 100 nM.

**Q.** How did the IC50 turn out when `CCc1cccc(-c2cc(-c3nn(-c4nc(C(=O)O)cs4)cc3Cc3ccc(S(N)(=O)=O)cc3)ccc2F)c1` [Compound 513, 2-(3-(3′-ethyl-6-fluoro-[1,1′-biphenyl]-3-yl)-4-(4-sulfamoylbenzyl)-1H-pyrazol-1-yl)thiazole-4-carboxylic acid] was run?
**A.** Its IC50 is 100 to 1000 nM.

**Q.** For `NS(=O)(=O)c1ccc(Cc2cn(-c3nc(C(=O)O)cs3)nc2-c2ccc(F)c(-c3cc(Cl)cc(Cl)c3)c2)cc1` [Compound 514, 2-(3-(3′,5′-dichloro-6-fluoro-[1,1′-biphenyl]-3-yl)-4-(4-sulfamoylbenzyl)-1H-pyrazol-1-yl)thiazole-4-carboxylic acid], which IC50 is on record?
**A.** The IC50 was 1000 to 57000 nM.

**Q.** For `Cc1ccc(-c2cc(-c3nn(-c4nc(C(=O)O)cs4)cc3Cc3ccc(S(N)(=O)=O)cc3)ccc2F)cc1C` [Compound 516, 2-(3-(6-fluoro-3′,4′-dimethyl-[1,1′-biphenyl]-3-yl)-4-(4-sulfamoylbenzyl)-1H-pyrazol-1-yl)thiazole-4-carboxylic acid], which IC50 is on record?
**A.** Its IC50 is 100 to 1000 nM.

**Q.** Which IC50 does the source give for `NS(=O)(=O)c1ccc(Cc2cn(-c3nc(C(=O)O)cs3)nc2-c2ccc(F)c(-c3ccc(F)c(F)c3)c2)cc1` [Compound 517, 2-(4-(4-sulfamoylbenzyl)-3-(3′,4′,6-trifluoro-[1,1′-biphenyl]-3-yl)-1H-pyrazol-1-yl)thiazole-4-carboxylic acid] here?
**A.** Its IC50 is 100 to 1000 nM.

**Q.** `COc1cc(-c2cc(-c3nn(-c4nc(C(=O)O)cs4)cc3Cc3ccc(S(N)(=O)=O)cc3)ccc2F)ccc1F` [Compound 518, 2-(3-(4′,6-difluoro-3′-methoxy-[1,1′-biphenyl]-3-yl)-4-(4-sulfamoylbenzyl)-1H-pyrazol-1-yl)thiazole-4-carboxylic acid] was tested. Which IC50 did it give?
**A.** Its IC50 is < 100 nM.

**Q.** Which IC50 does the source give for `Cc1cccc(-c2cccc(-c3nn(-c4nc(C(=O)O)cs4)cc3Cc3ccc(S(N)(=O)=O)cc3)c2)c1` [Compound 519, 2-(3-(3′-methyl-[1,1′-biphenyl]-3-yl)-4-(4-sulfamoylbenzyl)-1H-pyrazol-1-yl)thiazole-4-carboxylic acid] here?
**A.** The IC50 was < 100 nM.

**Q.** For `Cc1ccc(-c2cc(-c3nn(-c4nc(C(=O)O)cs4)cc3Cc3ccc(S(N)(=O)=O)cc3)ccc2F)cc1F` [Compound 520, 2-(3-(3′,6-difluoro-4′-methyl-[1,1′-biphenyl]-3-yl)-4-(4-sulfamoylbenzyl)-1H-pyrazol-1-yl)thiazole-4-carboxylic acid], which IC50 is on record?
**A.** The IC50 was 100 to 1000 nM.
